Test results as given in patent US10370366B2 (Flatley Discovery Lab, LLC, priority 2013, dated 2019).

Molecular target: T1, human F508del CFTR (Homo sapiens, UniProt P13569, DEL508-508)
T1 construct: expressed in transfected cells; host or cells: Fisher Rat Thyroid (FRT) cells
Assay: CFTR-YFP High Throughput Assay
Format: cell-based
Conditions: FRT cells expressing human F508del CFTR and YFP; for Emax: EMax normalized to the positive control, read-out: % Efficacy
Method in brief: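 Corrector mode: 24-26 h compound exposure (2 nM-40 μM, 37° C) of FRT cells carrying human F508del CFTR and YFP-H148Q/I152L, followed by washing and 60-120 min RT stimulation with 20 μM forskolin and 30 μM P3. CFTR activity is the least-squares-fitted rate of YFP quenching (Ex 500/Em 540 nm) after iodide addition.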

T1 sequence (P13569 with tags, fused parts or gaps DEL508-508): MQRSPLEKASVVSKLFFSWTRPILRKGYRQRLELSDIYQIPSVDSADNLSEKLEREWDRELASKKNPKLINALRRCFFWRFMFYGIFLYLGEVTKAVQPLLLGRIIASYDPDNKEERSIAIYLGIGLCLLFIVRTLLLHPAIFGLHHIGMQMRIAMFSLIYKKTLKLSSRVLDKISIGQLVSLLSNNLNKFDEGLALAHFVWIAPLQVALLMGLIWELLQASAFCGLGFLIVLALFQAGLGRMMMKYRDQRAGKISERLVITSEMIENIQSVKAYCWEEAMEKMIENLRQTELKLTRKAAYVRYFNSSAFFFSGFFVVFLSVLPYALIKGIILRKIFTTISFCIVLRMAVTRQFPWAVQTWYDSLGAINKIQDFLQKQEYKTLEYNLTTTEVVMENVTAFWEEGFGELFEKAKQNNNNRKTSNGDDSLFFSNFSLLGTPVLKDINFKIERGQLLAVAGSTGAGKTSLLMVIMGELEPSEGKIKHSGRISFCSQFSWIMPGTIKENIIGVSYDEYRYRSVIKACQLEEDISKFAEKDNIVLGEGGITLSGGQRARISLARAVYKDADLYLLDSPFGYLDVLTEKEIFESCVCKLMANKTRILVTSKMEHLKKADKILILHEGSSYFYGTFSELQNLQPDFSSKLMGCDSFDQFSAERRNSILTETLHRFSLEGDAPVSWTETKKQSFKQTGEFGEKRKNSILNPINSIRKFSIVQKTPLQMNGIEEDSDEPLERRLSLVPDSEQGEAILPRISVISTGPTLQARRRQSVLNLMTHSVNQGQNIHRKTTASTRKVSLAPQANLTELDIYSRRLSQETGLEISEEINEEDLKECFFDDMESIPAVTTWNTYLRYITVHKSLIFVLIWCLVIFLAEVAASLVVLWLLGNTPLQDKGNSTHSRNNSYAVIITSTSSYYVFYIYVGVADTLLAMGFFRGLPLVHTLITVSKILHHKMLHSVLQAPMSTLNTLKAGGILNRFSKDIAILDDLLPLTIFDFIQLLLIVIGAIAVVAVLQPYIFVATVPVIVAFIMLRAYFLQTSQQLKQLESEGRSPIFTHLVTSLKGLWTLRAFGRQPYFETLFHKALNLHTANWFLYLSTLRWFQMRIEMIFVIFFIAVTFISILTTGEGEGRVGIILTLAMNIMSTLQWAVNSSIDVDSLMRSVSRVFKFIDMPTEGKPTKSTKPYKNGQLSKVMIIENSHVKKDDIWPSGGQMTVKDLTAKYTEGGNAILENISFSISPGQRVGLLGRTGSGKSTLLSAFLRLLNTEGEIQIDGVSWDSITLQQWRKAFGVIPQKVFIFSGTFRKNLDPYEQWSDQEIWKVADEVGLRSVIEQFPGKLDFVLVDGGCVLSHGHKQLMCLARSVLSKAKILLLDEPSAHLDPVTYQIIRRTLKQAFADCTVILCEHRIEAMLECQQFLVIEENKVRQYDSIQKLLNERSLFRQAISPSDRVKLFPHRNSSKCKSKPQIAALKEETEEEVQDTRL

Row | SMILES | Emax [%] | EC50 [µM]
1 | CCN(C(=O)c1nn(-c2cnc3ccccc3c2)c(=O)c2c1c1ccccc1n2C)c1ccccc1 [Example 177, N-ethyl-5-methyl-4-oxo-N-phenyl-3-(quinolin-3-yl)-4,5-dihydro-3H-pyridazino[4,5-b]indole-1-carboxamide] | 30 to 80 | –
2 | CCN(C(=O)c1nn(-c2ccc(Cl)cc2)c(=O)c2c1c1ccccc1n2C)c1ccccc1 [Example 178, 3-(4-chlorophenyl)-N-ethyl-5-methyl-4-oxo-N-phenyl-4,5-dihydro-3H-pyridazino[4,5-b]indole-1-carboxamide] | 30 to 80 | –
3 | CCN(C(=O)c1nn(-c2ccc(OC)cc2)c(=O)c2c1c1ccccc1n2C)c1ccccc1 [Example 179, N-ethyl-3-(4-methoxyphenyl)-5-methyl-4-oxo-N-phenyl-4,5-dihydro-3H-pyridazino[4,5-b]indole-1-carboxamide] | 30 to 80 | > 20
4 | CCN(C(=O)c1nn(-c2ccc(C)cn2)c(=O)c2c1c1ccccc1n2C)c1ccccc1 [Example 180, N-ethyl-5-methyl-3-(5-methylpyridin-2-yl)-4-oxo-N-phenyl-4,5-dihydro-3H-pyridazino[4,5-b]indole-1-carboxamide] | 10 to 30 | –
5 | CCN(C(=O)c1nn(-c2ccccc2)c(=O)c2c1c1ccccc1n2C)c1cccc(Cl)c1 [Example 181, N-(3-chlorophenyl)-N-ethyl-5-methyl-4-oxo-3-phenyl-4,5-dihydro-3H-pyridazino[4,5-b]indole-1-carboxamide] | 30 to 80 | –
6 | CCN(C(=O)c1nn(-c2ccc(C)cc2)c(=O)c2c1c1ccccc1n2C)c1ccc2c(c1)OC(F)(F)O2 [Example 182, N-(2,2-difluorobenzo[d][1, 3]dioxol-5-yl)-N-ethyl-5-methyl-4-oxo-3-(p-tolyl)-4,5-dihydro-3H-pyridazino[4,5-b]indole-1-carboxamide] | 30 to 80 | –
7 | CCN(C(=O)c1nn(-c2ccc(C)cc2)c(=O)c2c1c1ccccc1n2C)c1cc(Cl)ccc1C(=O)O [Example 183, 4-chloro-2-(N-ethyl-5-methyl-4-oxo-3-(p-tolyl)-4,5-dihydro-3H-pyridazino[4,5-b]indole-1-carboxamido)benzoic acid] | 30 to 80 | –
8 | Cc1ccc(-n2nc(C(=O)Nc3cc(Cl)ccc3C(=O)O)c3c4ccccc4n(C)c3c2=O)cc1 [Example 184, 4-chloro-2-(5-methyl-4-oxo-3-(p-tolyl)-4,5-dihydro-3H-pyridazino[4,5-b]indole-1-carboxamido)benzoic acid] | 30 to 80 | > 20
9 | CCN(C(=O)c1nn(C2CCOCC2)c(=O)c2c1c1ccccc1n2C)c1ccccc1 [Example 185, N-ethyl-5-methyl-4-oxo-N-phenyl-3-(tetrahydro-2H-pyran-4-yl)-4,5-dihydro-3H-pyridazino[4,5-b]indole-1-carboxamide] | 30 to 80 | < 10
10 | CC(C)N(C(=O)c1nn(-c2ccccn2)c(=O)c2c1c1ccccc1n2C)c1ccccc1 [Example 186, N-isopropyl-5-methyl-4-oxo-N-phenyl-3-(pyridin-2-yl)-4,5-dihydro-3H-pyridazino[4,5-b]indole-1-carboxamide] | 10 to 30 | < 10
11 | CCN(C(=O)c1nn(-c2ccc(C)cc2)c(=O)c2c1c1cc(OC)ccc1n2C)c1ccccc1 [Example 187, N-ethyl-8-methoxy-5-methyl-4-oxo-N-phenyl-3-(p-tolyl)-4,5-dihydro-3H-pyridazino[4,5-b]indole-1-carboxamide] | 30 to 80 | > 20
12 | CCN(C(=O)c1nn(-c2ccc(C)cc2)c(=O)c2c1c1ccc(OC)cc1n2C)c1ccccc1 [Example 188, N-ethyl-7-methoxy-5-methyl-4-oxo-N-phenyl-3-(p-tolyl)-4,5-dihydro-3H-pyridazino[4,5-b]indole-1-carboxamide] | 30 to 80 | > 20
13 | CCN(C(=O)c1nn(-c2ccc(C)cc2)c(=O)c2c1c1cccc(OC)c1n2C)c1ccccc1 [Example 189, N-ethyl-6-methoxy-5-methyl-4-oxo-N-phenyl-3-(p-tolyl)-4,5-dihydro-3H-pyridazino[4,5-b]indole-1-carboxamide] | 30 to 80 | > 20
14 | CC(C)N(C(=O)c1nn(-c2ccccc2)c(=O)c2c1c1ccccc1n2C)c1ccc(Cl)cc1 [Example 190, N-(4-chlorophenyl)-N-isopropyl-5-methyl-4-oxo-3-phenyl-4,5-dihydro-3H-pyridazino[4,5-b]indole-1-carboxamide] | 30 to 80 | < 10
15 | CC(C)N(C(=O)c1nn(-c2cnc3ccccc3c2)c(=O)c2c1c1ccccc1n2C)c1ccccc1 [Example 191, N-isopropyl-5-methyl-4-oxo-N-phenyl-3-(quinolin-3-yl)-4,5-dihydro-3H-pyridazino[4,5-b]indole-1-carboxamide] | 30 to 80 | > 20
16 | CCN(C(=O)c1nn(-c2ccc(OC)c(Cl)c2)c(=O)c2c1c1ccccc1n2C)c1ccccn1 [Example 192, 3-(3-chloro-4-methoxyphenyl)-N-ethyl-5-methyl-4-oxo-N-(pyridin-2-yl)-4,5-dihydro-3H-pyridazino[4,5-b]indole-1-carboxamide] | 30 to 80 | < 10
17 | CCN(C(=O)c1nn(-c2ccc(C(F)(F)F)cn2)c(=O)c2c1c1ccccc1n2C)c1ccccc1 [Example 193, N-ethyl-5-methyl-4-oxo-N-phenyl-3-(5-(trifluoromethyl)pyridin-2-yl)-4,5-dihydro-3H-pyridazino[4,5-b]indole-1-carboxamide] | 30 to 80 | < 10
18 | CCN(C(=O)c1nn(-c2ccc(C(F)(F)F)cc2)c(=O)c2c1c1ccccc1n2C)c1ccccc1 [Example 194, N-ethyl-5-methyl-4-oxo-N-phenyl-3-(4-(trifluoromethyl)phenyl)-4,5-dihydro-3H-pyridazino[4,5-b]indole-1-carboxamide] | 30 to 80 | > 20
19 | CCN(C(=O)c1nn(-c2ccc(C)cc2)c(=O)c2c1c1c(OC)cccc1n2C)c1ccccc1 [Example 195, N-ethyl-9-methoxy-5-methyl-4-oxo-N-phenyl-3-(p-tolyl)-4,5-dihydro-3H-pyridazino[4,5-b]indole-1-carboxamide] | 30 to 80 | < 10
20 | CCN(C(=O)c1nn(-c2ccc(C)cc2)c(=O)c2c1c1c(C)cccc1n2C)c1ccccc1 [Example 196, N-ethyl-5,9-dimethyl-4-oxo-N-phenyl-3-(p-tolyl)-4,5-dihydro-3H-pyridazino[4,5-b]indole-1-carboxamide] | > 80 | > 20
21 | CCN(C(=O)c1nn(Cc2ccccc2)c(=O)c2c1c1ccccc1n2C)c1ccccc1 [Example 197, 3-benzyl-N-ethyl-5-methyl-4-oxo-N-phenyl-4,5-dihydro-3H-pyridazino[4,5-b]indole-1-carboxamide] | 30 to 80 | –
22 | CCN(C(=O)c1nn(C2CCN(Cc3ccccc3)CC2)c(=O)c2c1c1ccccc1n2C)c1ccccc1 [Example 198, 3-(1-benzylpiperidin-4-yl)-N-ethyl-5-methyl-4-oxo-N-phenyl-4,5-dihydro-3H-pyridazino[4,5-b]indole-1-carboxamide] | 30 to 80 | –
23 | CCN(C(=O)c1nn(C2CCN(C)CC2)c(=O)c2c1c1ccccc1n2C)c1ccccc1 [Example 199, N-ethyl-5-methyl-3-(1-methylpiperidin-4-yl)-4-oxo-N-phenyl-4,5-dihydro-3H-pyridazino[4,5-b]indole-1-carboxamide] | 10 to 30 | > 20
24 | CCN(C(=O)c1nn(C2CCN(S(=O)(=O)c3ccc4c(c3)OC(F)(F)O4)CC2)c(=O)c2c1c1ccccc1n2C)c1ccccc1 [Example 200, 3-(1-((2,2-difluorobenzo[d][1, 3]dioxol-5-yl)sulfonyl)piperidin-4-yl)-N-ethyl-5-methyl-4-oxo-N-phenyl-4,5-dihydro-3H-pyridazino[4,5-b]indole-1-carboxamide] | 30 to 80 | < 10
25 | CCN(C(=O)c1nn(C(C)C)c(=O)c2c1c1ccccc1n2C)c1cccc(Cl)c1 [Example 201, N-(3-chlorophenyl)-N-ethyl-3-isopropyl-5-methyl-4-oxo-4,5-dihydro-3H-pyridazino[4,5-b]indole-1-carboxamide] | 30 to 80 | –
26 | CCN(C(=O)Cn1nc(C(=O)N(CC)c2cccc(Cl)c2)c2c3ccccc3n(C)c2c1=O)c1ccc2c(c1)OC(F)(F)O2 [Example 202, N-(3-chlorophenyl)-3-(2-((2,2-difluorobenzo[d][1,3]dioxol-5-yl)(ethyl)amino)-2-oxoethyl)-N-ethyl-5-methyl-4-oxo-4,5-dihydro-3H-pyridazino[4,5-b]indole-1-carboxamide] | 30 to 80 | –
27 | CCc1ccc(N(CC)C(=O)Cn2nc(C(=O)N(CC)c3cccc(Cl)c3)c3c4ccccc4n(C)c3c2=O)cc1 [Example 203, N-(3-chlorophenyl)-N-ethyl-3-(2-(ethyl(4-ethylphenyl)amino)-2-oxoethyl)-5-methyl-4-oxo-4,5-dihydro-3H-pyridazino[4,5-b]indole-1-carboxamide] | 30 to 80 | –
28 | CCN(C(=O)c1nn(C2CCCCC2)c(=O)c2c1c1ccccc1n2C)c1cccc(Cl)c1 [Example 204, N-(3-chlorophenyl)-3-cyclohexyl-N-ethyl-5-methyl-4-oxo-4,5-dihydro-3H-pyridazino[4,5-b]indole-1-carboxamide] | 30 to 80 | –
29 | CCN(C(=O)c1nn(C(C)C)c(=O)c2c1c1ccccc1n2C)c1cc(Cl)ccc1C#N [Example 205, N-(5-chloro-2-cyanophenyl)-N-ethyl-3-isopropyl-5-methyl-4-oxo-4,5-dihydro-3H-pyridazino[4,5-b]indole-1-carboxamide] | 30 to 80 | –
30 | CCN(CC)C(=O)c1nn(CC(=O)N(CC)c2ccc3c(c2)OC(F)(F)O3)c(=O)c2c1c1ccccc1n2C [Example 206, 3-(2-((2,2-difluorobenzo[d][1, 3]dioxol-5-yl)(ethyl)amino)-2-oxoethyl)-N,N-diethyl-5-methyl-4-oxo-4,5-dihydro-3H-pyridazino[4,5-b]indole-1-carboxamide] | 30 to 80 | –
